Results reported in patent US20080096861A1, “Chemical Compounds” (SMITHKLINE BEECHAM CORPORATION, priority 2004, published 2008).
Read-outs that look alike come from different tables or passages of the source.

What was measured:
Format in all cases: cell-based
[1] = molecular target: T1, CXCR4 receptor (Homo sapiens, UniProt P61073); test: Functional FLIPR assay (block of SDF-1 alpha induced [Ca2+]i change); conditions: HEK-293 cells, human CXCR4 BacMam and Gqi5 BacMam, read-out: Functional assay (pIC50) (converted)
T1 construct: expressed in transfected cells; host or cells: HEK-293 cells (stably expressing human macrophage scavenger receptor) transduced with human CXCR4 BacMam and Gqi5 BacMam
Experimental: Human embryonic kidney (HEK-293) cells were maintained and harvested as described above. Cells were plated in 96-well, black clear bottom, poly-lysine coated plates at a concentration of 40,000 cells per well in a final volume of 100 ul containing human CXCR4BacMam (MOI=25) and Gqi5 BacMam (MOI=12.5). The cells were incubated at 37° C., 5% CO2, 95% humidity for 24 h to allow for protein expression.
After the required incubation time the cells were washed once with 50 ul of fresh serum-free DMEM/F12 media containing probenicid. 50 ul of dye solution was then added to the cells (Calcium Plus Assay Kit Dye; Molecular Devices) was dissolved in 200 ml of the above probenicid/BSA containing media and incubated for 1 h. Cell plates were transferred to a Fluorometric Imaging Plate Reader (FLIPR). Upon addition the effect of the compounds on the change in [Ca^2+]i was examined to determine if the compounds were agonists or antagonists (ability to block SDF-1 alpha activity) at the CXCR4 receptor. IC50 values are determined and pKb values are calculated using the Leff and Dougall equation: KB═IC50/((2+([agonist]/EC50̂b)̂1/b−1) Where IC50 is that defined by the antagonist concentration-response curve [agonist)] is the EC80 concentration of agonist used EC50 is that defined by the agonist concentration-response curve b is the slope of the agonist concentration-response curve.

[2] = tested on: HIV-1 IIIB; test: HOS HIV-1 infectivity assay
In short: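 HOS hCXCR4/hCCR5/hCD4/pHIV-LTR-luc cells, DMEM 2% FCS, 24 h preculture; cpd 1 h pre-virus; HIV-1 (PBL-grown) ~2 million RLU/well; 96 h, 37 °C. Readout: Steady-Glo luciferase (infected), CellTiter-Glo (no virus).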

[3] = tested on: HIV-1 gp160 (HXB2 strain) mediated cell/cell fusion; test: Cell/cell fusion assay (HOS hCXCR4/hCCR5/hCD4/pHIV-LTR-luciferase cells with HEK-293 cells expressing HIV-1 tat, rev, gp160), luciferase readout; conditions: Homo sapiens, HEK293, 24 h, read-out: Fusion assay (pIC50) (converted)
Excerpt: The complete coding sequences of HIV-1 tat (GenBank Accession No. X07861) and rev (GenBank Accession No. M34378) were cloned into pcDNA3.1 expression vectors containing G418 and hygromycin resistance genes, respectively. The complete coding sequence of the HIV-1 (HXB2 strain) gp160 envelope gene (nucleotide bases 6225-8795 of GenBank Accession No. K03455) was cloned into plasmid pCRII-TOPO. The three HIV genes were additionally inserted into the baculovirus shuttle vector, pFastBacMam1, under the transcriptional control of the CMV promoter. A construction of the pHIV-1 LTR containing mutated NFkB sequences linked to the luciferase reporter gene was prepared by digesting pcDNA3.1, containing the G418 resistance gene, with Nru I and Bam HI to remove the CMV promoter. LTR-luc was then cloned into the Nru I/Bam HI sites of the plasmid vector. Plasmid preparations were performed after the plasmids were amplified in Escherichia coli strain DH5-alpha. The fidelity of the inserted sequences was confirmed by double-strand nucleotide sequencing using an ABI Prism Model 377 automated sequencer.
Recombinant BacMam baculoviruses were constructed from pFastBacMam shuttle plasmids by using the bacterial cell-based Bac-to-Bac system. Viruses were propagated in Sf9 (Spodoptera frugiperda) cells cultured in Hink's TNM-FH Insect media supplemented with 10% (v/v) fetal bovine serum and 0.1% (v/v) pluronic F-68 according to established protocols.
Human osteosarcoma (HOS) cells that naturally express human CXCR4 were transfected with human CCR5, human CD4 and the pHIV-LTR-luciferase plasmid using FuGENE 6 transfection reagent. Single cells were isolated and grown under selection condition in order to generate a stable HOS (hCXCR4/hCCR5/hCD4/pHIV-LTR-luciferase) clonal cell line. The cells were maintained in Dulbeccos modified Eagles media supplemented with 10% fetal calf serum (FCS), G418 (400 ug/ml), puromycin (1 ug/ml), mycophenolic acid (40 ug/ml), xanthine (250 ug/ml) and hypoxanthine (13.5 ug/ml) to maintain a selection pressure for cells expressing the LTR-luciferase, hCCR5 and hCD4, respectively. Human embryonic kidney (HEK-293) cells stably transfected to express the human macrophage scavenging receptor (Class A, type 1; GenBank Accession No. D90187), were maintained in DMEM/F-12 media (1:1) supplemented with 10% FCS and 1.5 ug/ml puromycin. The expression of this receptor by the HEK-293 cells enhances their ability to stick to tissue culture treated plasticware.
HEK-293 cells were harvested using enzyme-free cell dissociation buffer. The cells were resuspended in DMEM/F-12 media supplemented with 10% FCS and 1.5 ug/ml and counted. Tranductions were performed by direct addition of BacMam baculovirus containing insect cell media to cells. The cells were simultaneously transduced with BacMam baculovirus expressing HIV-1 tat, HIV-1 rev and HIV-1 gp160 (from the HXB2 HIV strain). Routinely an MOI of 10 of each virus was added to the media containing the cells. 2 mM butyric acid was also added to the cells at this stage to increase protein expression in transduced cells. The cells were subsequently mixed and seeded into a flask at 30 million cells per T225. The cells were incubated at 37° C., 5% CO2, 95% humidity for 24 h to allow for protein expression.
HEK and HOS cells were harvested in DMEM/F-12 media containing 2% FCS and DMEM media containing 2% FCS, respectively, with no selection agents added. Compounds were plated as 1 ul spots in 100% DMSO on a 96-well CulturPlate plates. HOS cells (50 ul) were added first to the wells, followed immediately by the HEK cells (50 ul). The final concentration of each cell type was 20,000 cells per well. Following these additions, the cells were returned to a tissue culture incubator (37° C.; 5% CO2/95% air) for an additional 24 h.
Following the 24 h incubation, total cellular luciferase activity was measured using the LucLite Plus assay kit (Packard, Meridien, Conn.). […]

[4] = Compound cytotoxicity in HOS cells in the absence of virus (CellTiter-Glo); conditions: human, no virus, read-out: Cytotox (pIC50) (converted)
Experimental: Compounds were profiled against two HIV-1 viruses, the M-tropic (CCR5 utilizing) Ba-L strain and the T-tropic (CXCR4 utilizing) IIIB strain. Both viruses were propagated in human peripheral blood lymphocytes. Compounds were tested for there ability to block infection of the HOS cell line (expressing hCXCR4/hCCR5/hCD4/pHIV-LTR-luciferase) by either HIV-1 Ba-L or HIV-1 IIIB. Compound cytotoxicity was also examined in the absence of virus addition.
HOS cells (expressing hCXCR4/hCCR5/hCD4/pHIV-LTR-luciferase) were harvested and diluted in Dulbeccos modified Eagles media supplemented with 2% FCS and non-essential amino acid to a concentration of 60,000 cells/ml. The cells were plated into 96-well plates (100 ul per well) and the plates were placed in a tissue culture incubator (37° C.; 5% CO2/95% air) for a period of 24 h.
Subsequently, 50 ul of the desired drug solution (4 times the final concentration) was added to each well and the plates were returned to the tissue culture incubator (37° C.; 5% CO2/95% air) for 1 h. Following this incubation 50 ul of diluted virus was added to each well (approximately 2 million RLU per well of virus). The plates were returned to the tissue culture incubator (37° C.; 5% CO2/95% air) and were incubated for a further 96 h.
Following this incubation the endpoint for the virally infected cultures was quantified following addition of Steady-Glo Luciferase assay system reagent (Promega, Madison, Wis.). Cell viability or non-infected cultures was measured using a CellTiter-Glo luminescent cell viability assay system (Promega, Madison, Wis.). All luminescent readouts are performed on a Topcount luminescence detector (Packard, Meridien, Conn.).

[5] = Human immunodeficiency virus 1, IIIB, as determined by the infectivity assay, strain not stated in Table 2, read-out: Activity Level
[6] = Human immunodeficiency virus 1, T-tropic (CXCR4 utilizing) IIIB strain, HOS cells, 96 h, read-out: HOS (3B)

T1 sequence (P61073 whole entry): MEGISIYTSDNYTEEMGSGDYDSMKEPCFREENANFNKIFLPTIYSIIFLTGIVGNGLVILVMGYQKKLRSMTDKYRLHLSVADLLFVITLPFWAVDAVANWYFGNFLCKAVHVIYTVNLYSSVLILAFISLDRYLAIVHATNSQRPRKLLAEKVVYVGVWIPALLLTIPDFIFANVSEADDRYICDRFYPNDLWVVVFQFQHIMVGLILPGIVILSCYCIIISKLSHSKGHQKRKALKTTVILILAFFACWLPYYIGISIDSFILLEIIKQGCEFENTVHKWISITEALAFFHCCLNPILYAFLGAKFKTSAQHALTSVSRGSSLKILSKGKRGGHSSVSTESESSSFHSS

SMILES | IC50 [1] [nM] | IC50 [2, 5] [nM] | IC50 [2, 6] [nM] | IC50 [3] [nM] | IC50 at 96 h [4] [µM]
CN(Cc1nc2ccccc2n1Cc1ccc(CNCc2ccccn2)cc1)C1CCCc2cccnc21 (centres unmarked) [Example 12, N-Methyl-N-({1-[(4-{[(2-pyridinylmethyl)amino]methyl}phenyl)methyl]-1H-benzimidazol-2-yl}methyl)-5,6,7,8-tetrahydro-8-quinolinamine] | 224 | 100 to 500 | 376 | 575 | > 100
CN(Cc1nc2ccccc2n1CCCCN)C1CCCc2cccnc21 (centres unmarked) [Example 13, N-{[1-(4-Aminobutyl)-1H-benzimidazol-2-yl]methyl}-N-methyl-5,6,7,8-tetrahydro-8-quinolinamine] | 302 | 100 to 500 | 131 | 126 | > 100
NCCCn1c(CN(Cc2ccccc2)C2CCCc3cccnc32)nc2ccccc21 (centres unmarked) [Example 21, N-{[1-(3-Aminopropyl)-1H-benzimidazol-2-yl]methyl}-N-(phenylmethyl)-5,6,7,8-tetrahydro-8-quinolinamine] | 288 | 500 to 10000 | 595 | 1320 | > 100
CN(C)CCCCCn1c(CN(C)C2CCCc3cccnc32)nc2ccccc21 (centres unmarked) [Example 17, N-({1-[5-(Dimethylamino)pentyl]-1H-benzimidazol-2-yl}methyl)-N-methyl-5,6,7,8-tetrahydro-8-quinolinamine] | 204 | 100 to 500 | 251 | 324 | > 100
CN(Cc1nc2ccccc2n1CCN1CCCCC1)C1CCCc2cccnc21 (centres unmarked) [Example 4, N-Methyl-N-({1-[2-(1-piperidinyl)ethyl]-1H-benzimidazol-2-yl}methyl)-5,6,7,8-tetrahydro-8-quinolinamine] | 60.3 | 100 to 500 | 156 | 138 | > 100
CCN(Cc1nc2ccccc2n1CCCN)C1CCCc2cccnc21 (centres unmarked) [Example 20, N-{[1-(3-Aminopropyl)-1H-benzimidazol-2-yl]methyl}-N-ethyl-5,6,7,8-tetrahydro-8-quinolinamine] | 28.2 | < 100 | 21 | 56.2 | > 100
CN1CCC(Cn2c(CN(C)C3CCCc4cccnc43)nc3ccccc32)C1 (centres unmarked) [Example 8d, N-Methyl-N-({1-[(1-methyl-3-pyrrolidinyl)methyl]-1H-benzimidazol-2-yl}methyl)-5,6,7,8-tetrahydro-8-quinolinamine] | 74.1 | < 100 | 57 | 74.1 | > 100
CN(Cc1nc2ccccc2n1CCN1CCOCC1)C1CCCc2cccnc21 (centres unmarked) [Example 5, N-Methyl-N-({1-[2-(4-morpholinyl)ethyl]-1H-benzimidazol-2-yl}methyl)-5,6,7,8-tetrahydro-8-quinolinamine] | 123 | 100 to 500 | 225 | 200 | > 100
CN(C)CCCn1c(CN(C)C2CCCc3cccnc32)nc2ccccc21 (centres unmarked) [Example 15c, N-({1-[3-(Dimethylamino)propyl]-1H-benzimidazol-2-yl}methyl)-N-methyl-5,6,7,8-tetrahydro-8-quinolinamine] | 17 | < 100 | 23 | 16.6 | > 100
CN(Cc1nc2ccccc2n1CCN)C1CCCc2cccnc21 (centres unmarked) [Example 18, N-{[1-(2-Aminoethyl)-1H-benzimidazol-2-yl]methyl}-N-methyl-5,6,7,8-tetrahydro-8-quinolinamine] | 166 |  |  | 316 | > 100
CN(C)CC(C)(C)CN1CCC[C@H](Cn2c(CN(C)[C@H]3CCCc4cccnc43)nc3ccccc32)C1 [Example 101, (8S)—N-{[1-({(3S)-1-[3-(Dimethylamino)-2,2-dimethylpropyl]-3-piperidinyl}methyl)-1H-benzimidazol-2-yl]methyl}-N-methyl-5,6,7,8-tetrahydro-8-quinolinamine] |  | < 100 |  |  | 
CC(C)CN(Cc1nc2ccccc2n1C[C@H]1CCCN(C)C1)[C@H]1CCCc2cccnc21 [Example 94, (8S)—N-[(1-{[(3S)-1-Methyl-3-piperidinyl]methyl}-1H-benzimidazol-2-yl)methyl]-N-(2-methylpropyl)-5,6,7,8-tetrahydro-8-quinolinamine] |  | 100 to 500 |  |  | 
